Test results: US6680318B2, “Piperazinomethylbenzamides as delta-opioid receptor agonists” (AstraZeneca AB, priority 1999, dated 2004)
Where a name gives a salt, the structure may show the parent alone. Read-outs that look alike come from different tables or passages of the source.

Tests used:
Rat Brain = Rat Brain (Rattus norvegicus, UniProt P33533); experiment: Rat Brain agonist activity (EC50, % EMAX); format: biochemical
HDelta = target: T1, HDelta (Homo sapiens, UniProt P41143); experiment: HDelta agonist activity (EC50, % EMAX); format: biochemical
T1 construct: expressed in transfected cells; host or cells: human 293S cells (geneticin-selected)

[1] = RLM metabolic stability (% remaining); format: in vitro ADME, rat
[2] = target: T2, cloned human δ receptors (HDelta) (Homo sapiens, UniProt P41143); experiment: Binding assay on membranes of 293S cells expressing cloned human δ receptor (HDelta)
T2 construct: expressed in transfected cells; host or cells: human 293S cells (geneticin-selected)

[3] = MLM metabolic stability (% remaining); format: in vitro ADME, mouse
Mouse Brain = target: T3, Mouse Brain (Mus musculus, UniProt P32300); experiment: Mouse Brain agonist activity (EC50, % EMAX); format: biochemical
T3 construct: from tissue; host or cells: mouse brain

[4] = 10000 (concentration, unit not given)
[5] = 100000 (concentration, unit not given)

T1 sequence (P41143 whole entry): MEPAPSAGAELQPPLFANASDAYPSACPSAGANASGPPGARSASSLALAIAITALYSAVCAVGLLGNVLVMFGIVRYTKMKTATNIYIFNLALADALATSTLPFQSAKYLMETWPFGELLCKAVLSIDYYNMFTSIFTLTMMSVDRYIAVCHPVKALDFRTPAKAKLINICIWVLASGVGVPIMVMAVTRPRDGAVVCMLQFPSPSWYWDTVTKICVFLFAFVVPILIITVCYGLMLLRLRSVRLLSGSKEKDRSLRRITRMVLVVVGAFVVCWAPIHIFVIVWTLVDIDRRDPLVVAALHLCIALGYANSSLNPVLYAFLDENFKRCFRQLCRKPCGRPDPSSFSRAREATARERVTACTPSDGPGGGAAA
T3 sequence (P32300 whole entry): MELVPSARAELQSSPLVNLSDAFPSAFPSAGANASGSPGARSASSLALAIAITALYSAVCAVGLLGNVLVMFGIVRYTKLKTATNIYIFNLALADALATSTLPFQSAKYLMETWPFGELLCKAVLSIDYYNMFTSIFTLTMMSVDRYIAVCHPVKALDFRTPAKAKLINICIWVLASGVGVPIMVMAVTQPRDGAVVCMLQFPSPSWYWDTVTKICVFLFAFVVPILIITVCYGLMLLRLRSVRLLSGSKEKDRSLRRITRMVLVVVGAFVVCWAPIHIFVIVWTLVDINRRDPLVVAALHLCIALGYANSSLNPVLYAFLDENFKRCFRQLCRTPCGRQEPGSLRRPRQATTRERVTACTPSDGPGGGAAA
Chain of Rat Brain (P33533 whole entry): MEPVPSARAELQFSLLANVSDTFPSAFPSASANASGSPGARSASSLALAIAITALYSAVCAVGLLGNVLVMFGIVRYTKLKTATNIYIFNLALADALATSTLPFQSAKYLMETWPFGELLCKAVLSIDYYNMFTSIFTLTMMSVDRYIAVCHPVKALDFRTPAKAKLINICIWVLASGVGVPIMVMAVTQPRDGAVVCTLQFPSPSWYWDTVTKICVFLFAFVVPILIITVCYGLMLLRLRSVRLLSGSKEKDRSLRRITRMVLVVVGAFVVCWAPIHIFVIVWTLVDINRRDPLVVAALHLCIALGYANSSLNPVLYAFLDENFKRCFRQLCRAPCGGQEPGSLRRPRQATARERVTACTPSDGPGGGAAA
T2 sequence (P41143 whole entry): as the sequence (P41143 whole entry) above

| SMILES | Emax (Rat Brain) | Emax (HDelta) | EC50 (HDelta; read-out: HDelta EC50) | RLM 10000 % rem. [1, 4] | RLM 100000 % rem. [1, 5] | IC50 [2] | MLM 10000 % rem. [3, 4] | MLM 100000 % rem. [3, 5] | EC50 (HDelta) | EC50 (Mouse Brain) | Emax (Mouse Brain) |
| --- | --- | --- | --- | --- | --- | --- | --- | --- | --- | --- | --- |
| CCN(CC)C(=O)c1ccc(C(c2cccc3c2OC(C)(C)C3)N2CCN(Cc3cccnc3)CC2)cc1 (stereo not shown) [Example 3, 4-{(2,2-dimethyl-2,3-dihydro-1-benzofuran-7-yl)[4-(3-pyridinylmethyl)-1-piperazinyl]methyl}-N,N-diethylbenzamide Dihydrochloride] | 93% | 103% | 19.5 nM | – | – | – | – | – | – | – | – |
| CCN(CC)C(=O)c1ccc(C(c2cccc3c2OC(C)(C)C3)N2CCN(Cc3ccccn3)CC2)cc1 (stereo not shown) [Example 4, 4-{(2,2-dimethyl-2,3-dihydro-1-benzofuran-7-yl)[4-(2-pyridinylmethyl)-1-piperazinyl]methyl}-N,N-diethylbenzamide Ditrifuroacetae] | 118% | 104% | – | 42.5% | 90.5% | 3.26 nM | 44.5% | 93% | 7.38 nM | 144 nM | 118% |
